PMC3894558, “Chemical signatures and new drug targets for gametocytocidal drug development” (Scientific Reports, 2014)
Read-outs that look alike come from different tables or passages of the source.

Tested on: P. falciparum 3D7 gametocytes
Experiment: alamarBlue gametocyte viability assay, strain 3D7
Format: cell-based, Plasmodium falciparum
Conditions: for Max Resp: DMSO set at 0%, 100 nM epoxomicin set at -100%; call rule not given here
[1] = Malaria Box, stages III-V 3D7 gametocytes
[2] = Malaria Box, stages III-V 3D7 gametocytes, 11 concentrations, 1:3 dilution, read-out: IC50
[3] = Malaria Box, stages III-V 3D7 gametocytes, 11 concentrations, 1:3 dilution

| Structure (SMILES) | IC50 [2] | IC50 [3] | IC50 (P. falciparum 3D7 gametocytes, mean of at least 3 independent experiments, read-out: Gametocyte IC50) | IC50 (Plasmodium falciparum, 3D7, Malaria Box, stages III-V 3D7 gametocytes, 11 concentrations, 1:3 dilution, read-out: IC50) | Max Resp (Malaria Box) | Curve Class [1] | reduction of gametocyte viability (Malaria Box screen) |
| --- | --- | --- | --- | --- | --- | --- | --- |
| Cc1c(C)n(CC(O)CNC2CCCCC2C)c2ccccc12 (centres unmarked) [MMV665806] | 3.32 µM | – | – | – | -89% | -1.1 | – |
| CC(C)(C)CC(C)(C)NCC(O)COc1ccc2c(c1)CCC2.Cl (centres unmarked) [MMV665817] | 9.35 µM | – | – | – | -107% | -2.1 | – |
| O=C(Nc1ccc(Cl)c(Cl)c1)Nc1ccc(Cl)c(Cl)c1 [MMV665852] | 23.5 µM | – | – | – | -88% | -2.1 | – |
| Cc1ccc(Cl)cc1N1CCN(CCCNC(=O)C2CCN(c3nc4ccccc4[nH]3)CC2)CC1 [MMV019746] | 29.6 µM | – | – | – | -74% | -2.2 | – |
| CN(C)c1ccc(N=Cc2ccc(N3CCOCC3)cc2)cc1 [MMV073843] | 2.35 µM | – | – | – | -98% | -1.1 | – |
| O=C1c2ccc3c4c(ccc(c24)C(=O)N1CCCCO)C(=O)N(CCCCO)C3=O [MMV009085] | 14.8 µM | – | – | – | -71% | -2.2 | – |
| N=c1c2ccccc2nnn1-c1cccc(C(F)(F)F)c1 [MMV665923] | – | Inactive | – | – | 14% | 4 | – |
| CCN(CC)CCNc1ccnc2cc(Cl)ccc12 [MMV006087] | 0.372 µM | – | – | – | -66% | -1.2 | – |
| CCOc1ccc(CCNC(=O)c2cccs2)cc1OCC [MMV007978] | – | Inactive | – | – | -13% | 4 | – |
| Oc1ccc(Cl)cc1CNc1nc2ccccc2[nH]1 [MMV665850] | – | Inactive | – | – | -50% | -2.2 | – |
| CCC(C)NCC(O)(c1ccc(Cl)cc1)c1ccc(Cl)cc1 (centres unmarked) [MMV665928] | 5.9 µM | – | – | – | -78% | -2.2 | – |
| CCCCCCC(O)(c1ccc(F)cc1)C(CN1CCOCC1)c1ccccc1.Cl (centres unmarked) [MMV000621] | 37.2 µM | – | – | – | -59% | -2.2 | – |
| O=C(NCC1Cc2cccc(-c3ccncc3)c2O1)c1csc2c1CCCC2 (centres unmarked) [MMV665954] | – | Inactive | – | – | 5% | 4 | – |
| Clc1ccc2c(N3CCCC3)ccnc2c1 [MMV007363] | 23.5 µM | – | – | – | -75% | -2.2 | – |
| COc1ccc(N2CCN(C(CNC(=O)C3CCCCC3)c3ccc4c(c3)OCO4)CC2)cc1 (centres unmarked) [MMV019662] | – | Inactive | – | – | -21% | 4 | – |
| CCCc1c(C)nc2ccc(Br)cc2c1O [MMV666095] | – | Inactive | – | – | 28% | 4 | – |
| Cc1cc(Nc2ccc3ccccc3c2)n2ncnc2n1 [MMV011099] | – | Inactive | – | – | -5% | 4 | – |
| CCOC(=O)c1cnc2ccc(Cl)cc2c1NCCCN(C)C [MMV006882] | – | Inactive | – | – | -43% | -2.2 | – |
| CC1CN(C(=O)c2sc3ccccc3c2Cl)CC(C)O1 (centres unmarked) [MMV020492] | – | Inactive | – | – | -36% | -2.2 | – |
| CC(C)OCc1cc(CN2CCN(c3cccc(Cl)c3)CC2)c(O)c2ncccc12 [MMV000788] | 8.33 µM | – | – | – | -97% | -1.1 | – |
| O=C(Nc1ccc(N2CCCCC2)c(Cl)c1)c1ccc(Br)o1 [MMV019700] | – | Inactive | – | – | 17% | 4 | – |
| O=C(Nc1cccc(C2=NCCN2)c1)Nc1cccc(C2=NCCN2)c1 [MMV665810] | – | – | – | 18.7 µM | -78% | -2.2 | – |
| C=CC12CCN(CC1)C(C(O)c1ccnc3ccc(OC)cc13)C2.Cl (centres unmarked) [MMV665782] | 0.209 µM | – | – | – | -31% | -1.2 | – |

The next lines start with results.

| IC50 [2] | IC50 [3] | IC50 (P. falciparum 3D7 gametocytes, mean of at least 3 independent experiments, read-out: Gametocyte IC50) | IC50 (Plasmodium falciparum, 3D7, Malaria Box, stages III-V 3D7 gametocytes, 11 concentrations, 1:3 dilution, read-out: IC50) | Structure (SMILES) | Max Resp (Malaria Box) | Curve Class [1] | reduction of gametocyte viability (Malaria Box screen) |
| --- | --- | --- | --- | --- | --- | --- | --- |
| 29.6 µM | – | – | – | Oc1ccc2ccccc2c1CNc1nc2ccccc2[nH]1 [MMV011832] | -67% | -2.2 | – |
| – | Inactive | – | – | COc1ccc(-c2cc3c(SCC(=O)Nc4cc(C(F)(F)F)ccc4Cl)nccn3n2)cc1 [MMV396679] | 0% | 4 | – |
| – | Inactive | – | – | COc1ccc(C=C2SC(=N)N(c3ccccc3OC)C2=O)cc1 [MMV666691] | -7% | 4 | – |
| 2.35 µM | – | – | – | CC(C)c1ccc(CNCC(O)c2ccccc2)cc1.Cl (centres unmarked) [MMV001049] | -76% | -1.2 | – |
| 23.5 µM | – | – | – | CC(=O)NCCc1nc2ccccc2n1Cc1ccc(C(C)C)cc1 [MMV007617] | -70% | -2.2 | – |
| – | Inactive | – | – | COc1ccc(C(=O)Nc2ccc3nc(N4CCCCC4)cc(C)c3c2)cc1OC [MMV019758] | -32% | -3 | – |
| – | Inactive | – | – | c1ccc(-c2ccc(-c3nc4ccccc4[nH]3)cc2)cc1 [MMV665891] | 18% | 4 | – |
| – | Inactive | – | – | COc1ccc(C(=O)Nc2nonc2-c2ccc(OC)c(OC)c2)cc1Cl [MMV011567] | 1% | 4 | – |
| 5.26 µM | – | – | – | CCOC(=O)C1(Cc2ccccc2)CCN(Cc2cccc(OC)c2O)CC1 [MMV666109] | -58% | -1.2 | – |
| 37.2 µM | – | – | – | COc1cc2cc(C(=O)Nc3ccccc3)c(N)nc2cc1OC [MMV006767] | -53% | -2.2 | – |
| 18.7 µM | – | – | – | O=C(Nc1nc(-c2ccccn2)cs1)c1ccccc1Br [MMV665909] | -65% | -2.2 | – |
| 14.8 µM | – | – | – | COc1cc(C(=O)ON=C(N)Cc2cccc3ccccc23)cc(OC)c1OC [MMV666687] | -100% | -2.1 | – |
| 1.87 µM | – | – | – | CN(C)CCCNc1c2ccccc2nc2ccccc12 [MMV000448] | -105% | -1.1 | – |
| – | Inactive | – | – | O=C(NC1CCN(Cc2ccccc2)CC1)c1cc(-c2ccncc2)nc2ccc(Cl)cc12 [MMV020275] | -48% | -2.2 | – |
| – | Inactive | – | – | Cc1ccccc1OCCSc1nc2ccc(NC(=O)c3ccccc3)cc2s1 [MMV007577] | 18% | 4 | – |
| 2.64 µM | – | – | – | CC(C)CCNCC(O)Cn1c2ccccc2c2ccccc21.Cl (centres unmarked) [MMV006787] | -94% | -1.1 | – |
| 37.2 µM | – | – | – | OC(Cn1nnc2ccccc21)Cn1c2ccc(Br)cc2c2cc(Br)ccc21 (centres unmarked) [MMV666025] | -60% | -2.2 | – |

| IC50 [2] | IC50 [3] | IC50 (P. falciparum 3D7 gametocytes, mean of at least 3 independent experiments, read-out: Gametocyte IC50) | IC50 (Plasmodium falciparum, 3D7, Malaria Box, stages III-V 3D7 gametocytes, 11 concentrations, 1:3 dilution, read-out: IC50) | Structure (SMILES) | Max Resp (Malaria Box) | Curve Class [1] | reduction of gametocyte viability (Malaria Box screen) |
| --- | --- | --- | --- | --- | --- | --- | --- |
| 2.64 µM | – | – | – | COc1ccc(C2c3ccc4ccccc4c3Oc3ncn(CCCN(C)C)c(=N)c32)cc1 (centres unmarked) [MMV667491] | -95% | -1.1 | – |
| 16.6 µM | – | – | – | CCN(CC)CCCNc1nc(-c2ccc(Cl)cc2)nc2ccccc12 [MMV665961] | -95% | -2.1 | – |
| 2.96 µM | – | – | – | O=C(NC1CCN(Cc2ccccc2)CC1)c1cc(C(=O)NC2CCN(Cc3ccccc3)CC2)cc(C(=O)NC2CCN(Cc3ccccc3)CC2)c1 [MMV019881] | -90% | -1.1 | – |
| – | Inactive | – | – | Cc1ccc(N2C(=O)C3C(C2=O)C2(c4ccccc4)C(=O)C3(c3ccccc3)C(c3ccccc3)=C2c2ccccc2)cc1 (centres unmarked) [MMV666062] | 12% | 4 | – |
| – | Inactive | – | – | CCOC(=O)c1cnc2ccc(OC)cc2c1NCc1ccccc1 [MMV665813] | -14% | 4 | – |
| 11.8 µM | – | – | – | Cc1cc(N2CCCC2)nc(Nc2ccc(NC(=O)CCc3ccccc3)cc2)n1 [MMV396669] | -75% | -2.2 | – |
| 0.833 µM | – | < 1 µM | – | CC1=C(CC(=O)c2cccc([N+](=O)[O-])c2)C(=O)c2ccccc2C1=O [MMV666125] | -116% | -1.1 | > 75% |
| – | Inactive | – | – | COc1ccc(CNC(=O)c2cc3c(=O)n4ccccc4nc3n(CCc3ccccc3)c2=N)cc1 [MMV665881] | -29% | 4 | – |
| 29.6 µM | – | – | – | Cc1cc(Nc2cccc(F)c2)nc(NCc2ccccc2)n1 [MMV006319] | -60% | -2.2 | – |
| 18.7 µM | – | – | – | Cc1cccc(-n2ncc3c(O)nc(-n4nc(C)cc4NC(=O)c4cc5ccccc5o4)nc32)c1 [MMV403679] | -64% | -2.2 | – |
| – | Inactive | – | – | CCN1CCN(c2c(C(=O)c3ccccc3)cnc3cc(OC)c(OC)cc23)CC1 [MMV008474] | -32% | -2.4 | – |
| – | Inactive | – | – | COc1ccc(C(C)=O)cc1N1C(=O)C2C(C1=O)C1(c3ccccc3)C(=O)C2(c2ccccc2)C(c2ccc(C)cc2)=C1c1ccc(C)cc1 (centres unmarked) [MMV007695] | 17% | 4 | – |
| – | Inactive | – | – | COc1ccc(-c2nonc2NC(=O)c2cccc(C)c2)cc1OC [MMV665890] | -38% | -3 | – |
| – | Inactive | – | – | Cc1ccc(CSCc2ccc(C(=O)NC3CC3)o2)cc1 [MMV007571] | 6% | 4 | – |
| 14.8 µM | – | – | – | CN1C=C(c2ccc3ccccc3n2)C(c2c[nH]c3ccccc23)c2ccccc21 (centres unmarked) [MMV008160] | -87% | -2.1 | – |
| 29.6 µM | – | – | – | CCCCCCc1cc2cc(-c3csc(C=Cc4ccccc4)n3)c(=O)oc2cc1O [MMV666692] | -54% | -2.2 | – |
| – | Inactive | – | – | O=C(Nc1ccc(C23CC4CC(CC(c5ccccc5)(C4)C2)C3)cc1)c1cccs1 [MMV007574] | 12% | 4 | – |
